Columns and labels:
[1] = cited from earlier work; for IC50: as described in Sidrauski et al. eLIFE 2:e00498 (2013)
[2] = tested on: trophoblast stem-like cells; assay: Passaging of trophoblast stem-like cells in TE3 medium with or without Chroman 1 or CEPT supplementation; type: cell-based, human; conditions: additional 25 nM Chroman 1, alone or as component of CEPT, in TE3 medium (total 50 nM Chroman 1) for first 24 hours after passaging; WA09-derived cells, reproduced with JHU191i, JHU198i, MCW032i, WA07
Procedure: To generate self-renewing trophoblast stem-like cells from the syncytiotrophoblast-like structures, the syncytiotrophoblast-like structures were cultured in TE3 medium: TE2 medium supplemented with 300 nM CHIR98014, 100 ng/ml EGF, 50 ng/ml HGF, 80 ng/ml R-spondin 1, 50 ng/ml R-spondin 3, 2.5 μM prostaglandin E2 and 25 nM Chroman 1. Trophoblast stem-like cells appeared in the cultures and started proliferating after a very short time following the start of the culturing into TE3 medium. The cells created compact epithelial-like colonies with cobblestone morphology and clearly defined border. The individual cells gradually became more compact. This morphological transformation was most obvious at passage 3 performed in TE3 medium.
The trophoblast stem-like cells were cultured in TE3 medium with or without CEPT supplementation, and also with or without Chroman 1 supplementation. For Chroman 1 or CEPT supplementation, when the trophoblast stem-like cells were passaged, the cells were seeded into TE3 medium supplemented with either an additional 25 nM Chroman 1 (for Chroman 1 supplementation) or CEPT containing 25 nM Chroman 1 (for CEPT supplementation). Since TE3 medium already contained 25 nM Chroman 1, only another 25 nM was added either alone or as a component of CEPT, so that the total concentration of Chroman 1 in TE3 medium was 50 nM for the first 24 hours after passaging. […]

Row | Compound | IC50 [1] [nM] | potency of trans-ISRIB relative to cis-ISRIB ([1]; trans-ISRIB more potent than cis-ISRIB, Sidrauski et al. 2013) [fold] | effect of supplementation at passaging on trophoblast stem-like cells [2]
1 | O=C(COc1ccc(Cl)cc1)N[C@H]1CC[C@H](NC(=O)COc2ccc(Cl)cc2)CC1 [trans-ISRIB, N,N′-((1r,4r)-cyclohexane-1,4-diyl)bis(2-(4-chlorophenoxy)acetamide)] | 5 | 100 | 
2 | COc1ccc2c(c1)C[C@H](C(=O)Nc1ccc(-c3cn[nH]c3)cc1OCCN(C)C)CO2 [Chroman 1, (3S)—N-{2-[2-(Dimethylamino)ethoxy]-4-(1H-pyrazol-4-yl)phenyl}-6-methoxy-3,4-dihydro-2H-1-benzopyran-3-carboxamide] |  |  | benefited
3 | O=C(COc1ccc(Cl)cc1)NC1CCC(NC(=O)COc2ccc(Cl)cc2)CC1 (stereo not drawn) [cis-ISRIB] | 600 |  | 

— US12644097B2, “Differentiation of trophectoderm lineage cells from pluripotent stem cells” (The United States of America, as represented by the …, priority 2020, dated 2026)
